{"source": "paper PMC8287923", "about": "“A small-molecule chemical interface for molecular programs” (Nucleic Acids Research, 2021)", "type_in_all_cases": "biochemical", "key": {"LacI": {"biological_target": "T1, LacI (Escherichia coli, UniProt P03023)", "T1 construct": "purified LacI with C-terminal His-tag (dimer)", "test": "purified LacI with O1 operator DNA template (psTLacI); PEN-DNA fluorescent switch dose response ([…])"}, "[1]": {"biological_target": "T2, Tryptophan synthase subunit B (TrpB), EcB (Escherichia coli, UniProt P0A879, M149T/N171D)", "T2 construct": "purified standalone TrpB variant (EcB)", "T2 sequence (P0A879 2-397 M149T/N171D)": "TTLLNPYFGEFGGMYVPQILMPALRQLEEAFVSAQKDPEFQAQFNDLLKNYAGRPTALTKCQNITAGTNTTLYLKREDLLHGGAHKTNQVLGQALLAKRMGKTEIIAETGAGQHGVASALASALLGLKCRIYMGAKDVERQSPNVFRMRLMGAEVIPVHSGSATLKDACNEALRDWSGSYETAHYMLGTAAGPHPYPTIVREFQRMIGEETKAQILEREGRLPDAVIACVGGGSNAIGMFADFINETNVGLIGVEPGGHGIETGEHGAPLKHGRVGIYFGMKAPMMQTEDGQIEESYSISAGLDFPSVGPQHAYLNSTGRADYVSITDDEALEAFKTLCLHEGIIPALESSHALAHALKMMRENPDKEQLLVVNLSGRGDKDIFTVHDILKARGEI", "test": "HPLC of overnight enzymatic conversion of indole and L-serine to L-trp"}, "TrpR": {"biological_target": "TrpR (Escherichia coli, UniProt P0A881)", "test": "purified TrpR with operator DNA template (psTTrpR); PEN-DNA fluorescent switch dose response, Hill fit"}}, "data": [{"molecule": "CC(C)S[C@@H]1O[C@H](CO)[C@H](O)[C@H](O)[C@H]1O", "note": "[IPTG, isopropyl β-d-1-thiogalactopyranoside]", "values": [{"measurement": "Kd", "setting": "LacI", "value": "~100", "unit": "µM"}]}, {"molecule": "N[C@@H](CO)C(=O)O", "note": "[L-serine]", "values": [{"measurement": "HPLC of overnight enzymatic conversion of indole and L-serine to L-trp", "setting": "[1]", "value": "Enzymatic activity of EcB L-trp synthesis was confirmed through HPLC evaluation."}]}, {"molecule": "N[C@@H](Cc1c[nH]c2ccccc12)C(=O)O", "note": "[L-trp]", "values": [{"measurement": "Kd", "setting": "TrpR", "value": 24, "unit": "µM"}]}, {"molecule": "c1ccc2[nH]ccc2c1", "note": "[indole]", "values": [{"measurement": "HPLC of overnight enzymatic conversion of indole and L-serine to L-trp", "setting": "[1]", "value": "Enzymatic activity of EcB L-trp synthesis was confirmed through HPLC evaluation."}]}]}
